Consider ten compounds from patent publication US9839618B2, “Compositions and methods relating to proliferative diseases” (The Penn State Research Foundation, priority 2010, dated 2017).

Like-named read-outs stand apart in the source and are kept apart here.

Assay [1] has as its system FF2441 normal human fibroblasts. The assay is described as follows: MTS assay viability IC50, normal fibroblasts. It is filed as cell-based. The settings on record: read-out: IC50 Normal fibroblast FF2441. As to the method: (§1) The efficacy of leelamine to kill other cancer types is measured and the IC50 for cell lines derived from carcinomas of breast, lung, prostate, connective tissue, pancreas and colon determined. The MTS assay as described in Sharma, A. et al., Clin Cancer Res, 2009, 15:1674-85; and Madhunapantula, S. V. et al., Mol Cancer Ther, 2008, 7:1297-308 is used to establish the IC50 at 24, 48 and 72 hours of leelamine treatment for normal human epidermal melanocytes (FOM103), normal skin fibroblast cells (FF2441), normal skin keratinocytes (HFK) and compared to melanocytic lesion cells from the radial-, vertical- and metastatic melanoma stages. 5×10^3 cells per well in 100 μL of media are plated and grown in a 96-well plate for 48 to 72 hours and treated with either DMSO vehicle control or 0.62 to 40 μmol/L of leelamine for 24, 48 or 72 hours. IC50 values for each compound in μmol/L for respective cell lines are measured from three independent experiments using GraphPad Prism version 4.01 (GraphPad Software, La Jolla, Calif.). Leelamine is found to be not toxic to normal cells and effective to kill melanoma cells as well as non-melanoma cancer cells as shown in Table 1 in FIG. 20. Leelamine is 3- to 4-fold more specific at killing metastatic melanoma than normal cells, supporting cancer therapeutic utility at concentrations<2 μmol/L.
5×10^3 cells per well in 100 μL of media are plated and grown in a 96-well plate for 48 to 72 hours and treated with either DMSO vehicle control or 0.62 to 40 μmol/L of leelamine for 24, 48 or 72 hours. IC50 values for each compound in μmol/L for respective cell lines are measured from three independent experiments using GraphPad Prism version 4.01 (GraphPad Software, La Jolla, Calif.). […]
(§2) Dehydroabietylamine, its N-substituted derivatives and the corresponding dihydroabietylamine and its N-substituted derivatives are tested for their capability to inhibit cell growth of cancer cell lines, including melanoma (UACC 903, 1205Lu), breast (MCF-7), fibrosarcoma (HT-1080), colon (Caco-2), and prostate (PC-3) cancer cell lines. Viability and IC50 of normal human fibroblasts and cell lines from melanoma and other malignancies following treatment with all the agents are measured using the MTS assay (Promega, Madison, Wis.). Human fibroblast FF2441 cells, metastatic melanoma cell lines 1205 Lu and UACC 903 as well as cancer cell lines representing sarcoma (HT-1080), prostate (PC-3, LNCaP), breast (MCF-7) and lung (A-549) are maintained in DMEM (Invitrogen, Carlsbad, Calif.) supplemented with 10% FBS (Hyclone, Logan, Utah) in a 5% CO2 atmosphere, humidified 37° C. incubator. 5×10^3 cells per well in 100 μL of media are plated and grown in a 96-well plate for 48 to 72 h and treated with either DMSO vehicle control or 0.62 to 40 μmol/L for 24, 48 or 72 h. IC50 values for each compound in […] for respective cell lines are measured from three independent experiments using GraphPad Prism version 4.01 (GraphPad Software, La Jolla, Calif.). FIG. 52 is a graph showing IC50 values for leelamine and compounds 4a, 4b and 5a in treated fibroblasts (FF2441) compared to melanoma cells. Selectivity ratio here is defined as ratio of activity against fibroblasts compared to activity against melanoma cells. Leelamine is relatively selective with a ratio of >6 and >4 for UACC903 and 1205Lu melanoma cells. The selectivity ratio of compound 4a is ˜4 and ˜3 for UACC903 and 1205Lu and for compound 4b is ˜4 for both cell lines. The selectivity ratio of compound 5a is ˜4 for UACC903 and >2 for 1205Lu cells.
A general note: Tetrazolium assays rely on reduction of a dye to a coloured formazan, in cell work by metabolically active cells.

The test system of assay [2] is 1205 Lu metastatic melanoma cells. In words: MTS assay viability IC50, 1205 Lu. The assay is classed as cell-based, human. The protocol:
as §1
(§3) 5×10^3 cells per well in 100 μL of media are plated and grown in a 96-well plate for 48 to 72 hours and treated with either DMSO vehicle control or 0.62 to 40 μmol/L of leelamine for 24, 48 or 72 hours. IC50 values for each compound in μmol/L for respective cell lines are measured from three independent experiments using GraphPad Prism version 4.01 (GraphPad Software, La Jolla, Calif.).
(§4) The IC50 and effect of liposomal preparations of leelamine on viability of normal human melanocytes, fibroblasts and melanoma cells UACC 903 and 1205 Lu are measured using the MTS assay (Promega, Madison, Wis.). Empty liposomes or liposomes containing abietic acid are used as controls. 5×10^3 cells per well in 100 μL of media are plated and grown in a 96-well plate for 48 or 72 hours for melanoma and normal cell lines, respectively. The cells are then treated with 0.62 to 40 μmol/L of liposome alone, a liposomal preparation of abietic acid, or with Nanolipolee-007 for 24 hours. IC50 values for each liposome in μmol/L for respective cell lines are measured from three independent experiments using GraphPad Prism version 4.01 (GraphPad Software, La Jolla, Calif.). Nanolipolee-007 retains the growth inhibitory activity of leelamine in killing melanoma cells in culture and specifically kills melanoma cells compared to normal cells, FIG. 24.
as §2, with “FIG. 52 is a graph showing IC50 values for leelamine and compounds 4a, 4b and 5a in treated fibroblasts (FF2441) compared to melanoma cells. Selectivity ratio here is defined as ratio of activity against fibroblasts compared to activity against melanoma cells. Leelamine is relatively selective with a ratio of >6 and >4 for UACC903 and 1205Lu melanoma cells. The selectivity ratio of compound 4a is ˜4 and ˜3 for UACC903 and 1205Lu and for compound 4b is ˜4 for both cell lines. The selectivity ratio of compound 5a is ˜4 for UACC903 and >2 for 1205Lu cells.” left out

The test system of assay [3] is UACC 903 metastatic melanoma cells. In words: MTS assay viability IC50, UACC 903. It is filed as cell-based, human. The protocol: as §1, §3, §4
as §2, with “FIG. 52 is a graph showing IC50 values for leelamine and compounds 4a, 4b and 5a in treated fibroblasts (FF2441) compared to melanoma cells. Selectivity ratio here is defined as ratio of activity against fibroblasts compared to activity against melanoma cells. Leelamine is relatively selective with a ratio of >6 and >4 for UACC903 and 1205Lu melanoma cells. The selectivity ratio of compound 4a is ˜4 and ˜3 for UACC903 and 1205Lu and for compound 4b is ˜4 for both cell lines. The selectivity ratio of compound 5a is ˜4 for UACC903 and >2 for 1205Lu cells.” left out

Assay [4] concerns melanoma cell lines (UACC 903, 1205Lu). The assay is described as follows: MTS assay, melanoma cell lines (cell line not given). The assay is classed as cell-based, human. The settings on record: Homo sapiens; Example 8. The protocol: The mechanistic basis of leelamine's activity to inhibit melanoma cell growth is determined by examining the effect of leelamine on 1) cell viability using the MTS assay; 2) proliferation using a BrdU incorporation assay; 3) apoptosis using an assay for caspase-3/7 activity; and 4) cell cycle analysis. The MTS assay as described in Sharma, A. et al., Clin Cancer Res, 2009, 15:1674-85; and Madhunapantula, S. V. et al., Mol Cancer Ther, 2008, 7:1297-308 is used to assay cell viability. Rates of proliferation and apoptosis are measured by seeding 5×10^3 cells in 96-well plates, followed by treatment with 0.62 to 10 μmol/L of leelamine for 24 hours. Proliferating and apoptotic cells are quantified using a colorimetric cell proliferation ELISA BrdU kit (Roche diagnostics, Indianapolis, Ind.) or Apo-ONE Homogenous caspase-3/7 assay kit (Promega, Madison, Wis.), respectively, as described in Sharma, A. et al., Clin Cancer Res, 2009, 15:1674-85; and Madhunapantula, S. V. et al., Mol Cancer Ther, 2008, 7:1297-308.
as §2

[5] abbreviates: Table 4, read-out: IC50 Metastatic Melanoma Cell line 1205Lu.
The mark [6] stands for this setting: Table 4, read-out: IC50 Metastatic Melanoma Cell line UACC903.
Setting [7] is: Homo sapiens, 1205Lu, Example 8, read-out: IC50 1205Lu.
The mark [8] stands for this setting: Homo sapiens, 1205Lu, Table 4, read-out: IC50 Metastatic Melanoma Cell line 1205Lu.
Where [9] appears, read: Homo sapiens, UACC-903, Example 8, read-out: IC50 UACC 903.
The mark [10] stands for this setting: Homo sapiens, UACC-903, Table 6, read-out: IC50 Metastatic melanoma UACC 903.
Where [11] appears, read: Homo sapiens, UACC-903, Table 7, read-out: IC50 (UACC903).
[12] abbreviates: Homo sapiens, 1205Lu, Table 6, read-out: IC50 Metastatic melanoma 1205 Lu.
Where [13] appears, read: Homo sapiens, UACC-903, Table 4, read-out: IC50 Metastatic Melanoma Cell line UACC903.

As for `CCOC[C@]1(C)CCC[C@]2(C)C3CCC(C(C)C)C=C3C=CC12` (stereo partly drawn) [Compound 2a], the IC50 in assay [1] (Table 4), in assay [2] (setting [5]) and in assay [3] (setting [6]) was above 100 µM in each case.
In the case of `CC(=O)NC[C@]1(C)CCC[C@]2(C)c3ccc(C(C)C)cc3CCC12` (stereo partly drawn) [Compound 5b, N-{[(1R,4aS)-1,4a-dimethyl-7-(propan-2-yl)-1,2,3,4,4a,9,10,10a-octahydrophenanthren-1-yl]methyl}acetamide], the IC50 in assay [1] (Table 6) is above 100 µM; in assay [2] (setting [7]), above 50 µM; in assay [2] (setting [8]), above 50 µM; in assay [3] (setting [9]), 89 µM; in assay [3] (setting [10]), 89.4 ± 3.31 µM; in assay [3] (setting [11]), 89.4 µM.
In turn, `CC(C)c1ccc2c(c1)CCC1[C@](C)(CNC(c3ccccc3)(c3ccccc3)c3ccccc3)CCC[C@]21C` (stereo partly drawn) [Compound 5e, {[(1R,4aS)-1,4a-dimethyl-7-(propan-2-yl)-1,2,3,4,4a,9,10,10a-octahydrophenanthren-1-yl]methyl}(triphenylmethyl)amine] yielded an IC50 in assay [4] above 100 µM.
Take `CC(C)C1=CC2=CCC3[C@](C)(CCC[C@@]3(C)C(N)=O)C2CC1` (stereo partly drawn) [Compound 3a, (1R,4aR)-1,4a-dimethyl-7-(propan-2-yl)-1,2,3,4,4a,4b,5,6,10,10a-decahydrophenanthrene-1-carboxamide]: the IC50 in assay [1] (Table 6) was above 100 µM; in assay [2] (setting [8]), 81.1 ± 2.09 µM; in assay [2] (setting [12]), 81.1 ± 2.09 µM; in assay [3] (setting [9]), 70 µM; in assay [3] (setting [13]), 70.1 ± 1.8 µM; in assay [3] (setting [10]) it was 70.1 ± 1.8 µM. In assay [3] (setting [11]), the IC50 stood at 70.1 µM.
`CCN(CC)C(=O)[C@]1(C)CCC[C@]2(C)C3CCC(C(C)C)=CC3=CCC21` (stereo partly drawn) [Compound 3c, (1R,4aR)-N,N-diethyl-1,4a-dimethyl-7-(propan-2-yl)-1,2,3,4,4a,4b,5,6,10,10a-decahydrophenanthrene-1-carboxamide]: the IC50 in assay [4] was above 100 µM.
In the case of `CCN(CC)C[C@]1(C)CCC[C@]2(C)C3CCC(C(C)C)=CC3=CCC12` (stereo partly drawn) [Compound 4c, {[(1R,4aR)-1,4a-dimethyl-7-(propan-2-yl)-1,2,3,4,4a,4b,5,6,10,10a-decahydrophenanthren-1-yl]methyl}diethylamine], the IC50 in assay [1] (Table 6) is above 100 µM; in assay [2] (setting [7]), 24.3 µM; in assay [2] (setting [8]), 24.3 ± 2.5 µM; in assay [2] (setting [12]), 24.3 ± 2.5 µM; in assay [3] (setting [9]), 24.4 µM; in assay [3] (setting [13]), 24.4 ± 1.33 µM. Also, the results for the IC50 in assay [3] (setting [10]) and in assay [3] (setting [11]) were 24.4 ± 1.33 µM and 24.4 µM, respectively.
With `CC(C)C1C=C2C=CC3[C@](C)(CO)CCC[C@]3(C)C2CC1` (stereo partly drawn) [Compound 2b, [(1R,4aR)-1,4a-dimethyl-7-(propan-2-yl)-1,2,3,4,4a,4b,5,6,7,100a-decahydrophenanthren-1-yl]methanol], the IC50 in assay [1] (Table 4) was above 100 µM; in assay [1] (Table 6), above 100 µM; in assay [2] (Example 8, read-out: IC50 1205Lu) it was 60 µM; in assay [2] (setting [5]), 60.4 ± 1.61 µM; in assay [2] (Table 6, read-out: IC50 Metastatic melanoma 1205 Lu), 60.4 ± 1.61 µM; in assay [3] (Example 8, read-out: IC50 UACC 903) it was 53 µM. In addition, the IC50 in assay [3] (setting [6]) stood at 52.6 ± 1.34 µM; in assay [3] (Table 6, read-out: IC50 Metastatic melanoma UACC 903), 52.6 ± 1.34 µM; in assay [3] (Table 7, read-out: IC50 (UACC903)) it was 52.6 µM.
As to `CC(C)c1ccc2c(c1)CCC1[C@](C)(CNC(=O)C(Br)(Br)Br)CCC[C@]21C` (stereo partly drawn) [GPR-5L, N-{[(1R,4aS)-1,4a-dimethyl-7-(propan-2-yl)-1,2,3,4,4a,9,10,10a-octahydrophenanthren-1-yl]methyl}-2,2,2-tribromoacetamide], the IC50 in assay [2] (setting [12]) was found to be 1.88 ± 0.21 µM; in assay [3] (setting [10]), 1.01 ± 0.08 µM; in assay [3] (setting [11]), 1.01 µM.
In the case of `CC(C)c1ccc2c(c1)CCC1[C@](C)(CNCc3ccccc3)CCC[C@]21C` (stereo partly drawn) [Compound 5d, N-benzyl-1-((1R,4aS)-7-isopropyl-1,4a-dimethyl-1,2,3,4,4a,9,10,10a-octahydrophenanthren-1-yl)methanamine], the IC50 in assay [4] came to 6 µM; in assay [3] (setting [13]), 6.05 ± 1.32 µM; in assay [3] (setting [10]) it was 6.05 µM; in assay [3] (setting [11]), 6.05 µM.
Take `CC(C)c1ccc2c(c1)CCC1[C@](C)(CNC(=O)c3ccccc3)CCC[C@]21C` (stereo partly drawn) [Compound 5c, N-(((1R,4aS)-7-isopropyl-1,4a-dimethyl-1,2,3,4,4a,9,10,10a-octahydrophenanthren-1-yl)methyl)benzamide]: the IC50 in assay [4], in assay [3] (setting [10]) and in assay [3] (setting [11]) was above 100 µM throughout.

For orientation: IC50 means the concentration that gives 50% inhibition.
